The values that follow come from US6649760B2, “Substituted phenyluracils” (priority 2000, dated 2003).

Data set [1] is described as follows: log P determination by HPLC (reversed-phase C18), EEC Directive 79/831 Annex V.A8. The data set is classed as physicochemical. To be noted: reversed-phase C18 HPLC column; a) acidic range: 0.1% aqueous phosphoric acid, acetonitrile, linear gradient 10% to 90% acetonitrile; HPLC C18, 43° C. An excerpt:
(a) Mobile phases for the determination in the acidic range: 0.1% aqueous phosphoric acid, acetonitrile; linear gradient from 10% acetonitrile to 90% acetonitrile—the corresponding test results in Table I are labelled a).
(b) Mobile phases for the determination in the neutral range: 0.01 molar aqueous phosphate buffer solution, acetonitrile; linear gradient from 10% acetonitrile to 90% acetonitrile—the corresponding test results in Table 1 are labelled b).

Data set [2] relates to weeds. Put plainly: Pre-emergence test (Example A). The class given is in vivo. The conditions noted are these: soil sprayed 24 hours after sowing, rated after three weeks vs untreated control. As for the experimental part: (§1) Solvent: 5 parts by weight of acetone
(§2) Emulsifier: 1 part by weight of alkylaryl polyglycol ether
(§3) To produce a suitable preparation of active compound, 1 part by weight of active compound is mixed with the stated amount of solvent, the stated amount of emulsifier is added and the concentrate is diluted with water to the desired concentration.
Seeds of the test plants are sown in normal soil. After 24 hours, the soil is sprayed with the preparation of active compound such that the particular amount of active compound desired is applied per unit area. The concentration of active compound in the spray liquor is chosen such that the particular amount of active compound desired is applied in 1000 liters of water per hectare.
After three weeks, the degree of damage to the plants is rated in % damage in comparison to the development of the untreated control. The figures denote:
(§4) 0%=no effect (like untreated control)

For data set [3], the system named is weeds. Description: Post-emergence test (Example B). The data set is classed as in vivo. To be noted: test plants of 5-15 cm sprayed, rated after three weeks vs untreated control. As for the experimental part:
as §1, §2, §3
Test plants of a height of 5-15 cm are sprayed with the preparation of active compound such that the particular amounts of active compound desired are applied per unit area. The concentration of the spray liquor is chosen such that the particular amounts of active compound desired are applied in 1000 l of water/ha.
After three weeks, the degree of damage to the plants is rated in % damage in comparison to the development of the untreated control.
as §4

Structures are written as SMILES.

As to `O=c1cc(C(F)(F)F)[nH]c(=O)n1-c1cc(Oc2ncccn2)c(Br)cc1F` [Example 1, 1-[4-bromo-2-fluoro-5-(pyrimidin-2-yl-oxy)-phenyl]-4-trifluoromethyl-3,6-dihydro-2,6-dioxo-1 (2H)-pyrimidine], in data set [1], the chromatographic logP stood at 1.96.
Turning to `Cn1c(C(F)(F)F)cc(=O)n(-c2cc(Oc3ncccn3)c(Br)cc2F)c1=O` [Example 2, 1-[4-bromo-2-fluoro-5-(pyrimidin-2-yl-oxy)-phenyl]-3-methyl-4-trifluoromethyl-3 ,6-dihydro-2,6-dioxo-1 (2H)-pyrimidine], the “activity against weeds (degree of damage to the plants)” value in data set [2] and in data set [3] was “very strong activity” each time. The chromatographic logP in data set [1] is 2.47.
